According to patent US20130090385A1, “NOVEL SPECIFIC CASPASE-10 INHIBITORS” (MERCK PATENT GESELLSCHAFT MIT BESCHRANKTER HAFTUNG, priority 2005, published 2013):
pIC50: −log10 of the molar value. Where two headings read alike, the source gives them in different places. Where a SMILES comes first, the peptide text is derived from it. The star is where a group is joined. Cbz = O=C(OCc1ccccc1)*; CH2F = FC*

Columns and labels:
[1] = molecular target: T1, Recombinant human caspase-6 (Homo sapiens, UniProt P55212); experiment: delayed-time fluorescence caspase inhibition test, caspase-6
T1 sequence (P55212 24-293): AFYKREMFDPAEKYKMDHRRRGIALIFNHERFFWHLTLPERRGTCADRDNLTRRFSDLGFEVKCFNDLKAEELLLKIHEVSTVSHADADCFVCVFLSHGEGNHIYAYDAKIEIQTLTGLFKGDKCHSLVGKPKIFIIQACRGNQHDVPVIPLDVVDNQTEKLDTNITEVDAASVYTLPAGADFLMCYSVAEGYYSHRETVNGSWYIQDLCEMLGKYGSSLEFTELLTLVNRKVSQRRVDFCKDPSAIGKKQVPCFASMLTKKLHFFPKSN
Protocol: (§1) The substrate used is a tetrapeptide specific to this caspase, having at one of its ends a fluorescent europium marker (W1284) and at the other end a europium chelate fluorescence quencher (QSy-7): Eu-W1284-CIETDK-QSy-7.
(§2) The caspase cleaves the substrate, releasing the quencher. Thus, by excitation at 340 nm, the signal emitted by the fluorescence of the europium is read by WALLAC Victor^2 reader at 615 nm.
(§3) They are ready for use or may be divided into aliquots and stored at −80° C.. […] 20 μl of this solution are distributed per well of the assay plate. […] The assay is performed with 1 U of enzyme per well, by distributing 20 μl of the diluted solution per well. • The standard inhibitors: The standard inhibitors are dissolved in DMSO to a concentration of 10 mM. They are tested at IC20 and at IC50 on the caspases they inhibit (see following table).
(§4) They are then distributed in the wells using this solution to reach the final concentration of IC20 or IC50, i.e. 3 μl in 33 μl of final reaction volume (dilution 1/11). Thus, the final concentration of DMSO in the well is 0.3% (v/v) final. […] An intermediate dilution (1/6.6) is prepared in DMSO by diluting 10 μl of the concentrated solution in 66 μl of DMSO (final volume). […] The inhibitors are then distributed in the wells to reach the final screening concentration (10 μM), i.e. 3 μl in 33 μl of final reaction volume (dilution 1/11) and a final concentration of DMSO of 0.3% (v/v) in the well. • Protocol:
(§5) The incubation takes place for 3 hours 30 minutes at room temperature before reading the fluorescence in delayed time on the WALLAC Victor^2 reader with the filters corresponding to the fluorescence of europium (excitation filter: 340 nm, emission filter: 615 nm).
(§6) The inhibitors are diluted using solutions with concentrations of less than 20 mM in DMSO, and then prediluted in the caspase buffer. […] The specificity factor for caspase-10 is calculated as the following ratio:

[2] = molecular target: T2, Recombinant human caspase-2 (Homo sapiens, UniProt P42575); experiment: delayed-time fluorescence caspase inhibition test, caspase-2
T2 sequence (P42575 1-452): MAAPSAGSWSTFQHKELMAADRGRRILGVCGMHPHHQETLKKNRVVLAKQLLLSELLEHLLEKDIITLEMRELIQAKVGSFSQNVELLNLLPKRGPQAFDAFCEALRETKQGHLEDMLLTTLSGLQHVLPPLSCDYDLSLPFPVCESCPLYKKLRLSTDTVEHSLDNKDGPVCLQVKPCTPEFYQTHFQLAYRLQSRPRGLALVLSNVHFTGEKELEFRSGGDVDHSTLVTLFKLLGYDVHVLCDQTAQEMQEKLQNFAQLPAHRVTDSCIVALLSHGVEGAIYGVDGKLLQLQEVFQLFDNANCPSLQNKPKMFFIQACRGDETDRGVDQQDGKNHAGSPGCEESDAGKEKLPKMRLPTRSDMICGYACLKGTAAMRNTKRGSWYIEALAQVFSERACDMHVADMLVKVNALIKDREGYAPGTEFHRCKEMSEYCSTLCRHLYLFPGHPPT
Protocol: as §1, §2, §3, §4, §5, §6

[3] = molecular target: T3, Recombinant human caspase-3 (Homo sapiens, UniProt P42574); experiment: delayed-time fluorescence caspase inhibition test, caspase-3
T3 sequence (P42574 29-277): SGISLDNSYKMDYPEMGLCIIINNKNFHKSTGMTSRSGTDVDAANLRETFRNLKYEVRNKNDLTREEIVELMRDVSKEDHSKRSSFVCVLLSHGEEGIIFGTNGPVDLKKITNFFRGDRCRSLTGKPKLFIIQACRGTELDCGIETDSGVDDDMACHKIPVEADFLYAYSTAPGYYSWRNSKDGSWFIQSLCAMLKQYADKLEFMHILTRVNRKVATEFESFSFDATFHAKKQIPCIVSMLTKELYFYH
Protocol: as §1, §2
20 μl of this solution are distributed per well of the assay plate. […] The assay is performed with 1 U of enzyme per well, by distributing 20 μl of the diluted solution per well. • The standard inhibitors: The standard inhibitors are dissolved in DMSO to a concentration of 10 mM. They are tested at IC20 and at IC50 on the caspases they inhibit (see following table). The concentrations mentioned in the table are the final concentrations in the assay wells.
as §4
The volumes and the protocol were optimised for automated use.
as §5
The inhibitors are diluted using solutions with concentrations of less than 20 mM in DMSO, and then prediluted in the caspase buffer.

[4] = molecular target: T4, Recombinant human caspase-9 (Homo sapiens, UniProt P55211); experiment: delayed-time fluorescence caspase inhibition test, caspase-9
T4 sequence (P55211 1-416): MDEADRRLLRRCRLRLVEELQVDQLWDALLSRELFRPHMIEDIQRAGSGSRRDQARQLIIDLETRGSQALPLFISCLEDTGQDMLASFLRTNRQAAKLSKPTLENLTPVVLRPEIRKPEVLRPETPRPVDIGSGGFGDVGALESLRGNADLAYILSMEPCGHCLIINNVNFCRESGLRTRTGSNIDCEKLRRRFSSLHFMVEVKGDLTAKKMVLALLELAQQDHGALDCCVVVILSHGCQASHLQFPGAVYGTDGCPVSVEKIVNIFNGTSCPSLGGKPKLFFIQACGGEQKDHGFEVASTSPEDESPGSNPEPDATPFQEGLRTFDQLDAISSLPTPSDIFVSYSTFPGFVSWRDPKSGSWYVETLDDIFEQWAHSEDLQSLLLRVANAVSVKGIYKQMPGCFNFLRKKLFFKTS
Protocol: as §1, §2, §3, §4, §5, §6

[5] = molecular target: Recombinant human caspase-8 (Homo sapiens, UniProt Q14790); experiment: delayed-time fluorescence caspase inhibition test, caspase-8
Protocol: as §1, §2, §3, §4, §5, §6

[6] = molecular target: T5, Recombinant human caspase-10 (Homo sapiens, UniProt Q92851); experiment: delayed-time fluorescence caspase inhibition test, caspase-10
T5 sequence (Q92851 220-521): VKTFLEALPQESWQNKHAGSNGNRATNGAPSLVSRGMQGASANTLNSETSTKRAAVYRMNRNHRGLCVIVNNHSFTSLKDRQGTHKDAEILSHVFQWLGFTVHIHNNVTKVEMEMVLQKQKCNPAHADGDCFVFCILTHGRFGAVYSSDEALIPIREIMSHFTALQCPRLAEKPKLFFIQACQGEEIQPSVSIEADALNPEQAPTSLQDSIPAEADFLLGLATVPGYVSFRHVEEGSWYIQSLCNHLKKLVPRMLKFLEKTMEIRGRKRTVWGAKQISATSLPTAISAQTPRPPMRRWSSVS
Protocol: as §1, §2, §3, §4, §5, §6

[7] = read-out: IC20 of standard inhibitor

Chain of Recombinant human caspase-8 (Q14790 217-479): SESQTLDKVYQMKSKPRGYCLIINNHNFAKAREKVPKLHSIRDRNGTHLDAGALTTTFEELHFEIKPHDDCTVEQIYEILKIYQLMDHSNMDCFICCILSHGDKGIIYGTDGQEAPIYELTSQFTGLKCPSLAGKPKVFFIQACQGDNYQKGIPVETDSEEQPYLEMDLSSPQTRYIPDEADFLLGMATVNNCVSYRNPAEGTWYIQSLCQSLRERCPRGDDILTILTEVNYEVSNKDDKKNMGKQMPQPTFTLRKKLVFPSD

## O=S(=O)(NCC1(Cc2ccc(CCOCC3CC3)cc2)CCC1)c1ccc(Cl)cc1Cl [Example 1, 2,4-Dichloro-N-[(1-{4-[2-(cyclopropylmethoxy)ethyl]benzyl}cyclobutyl)methyl]benzenesulfonamide]
[1]
  pIC50: < 3.70
[2]
  pIC50: < 3.70
[3]
  pIC50: < 3.70
[4]
  pIC50: < 3.70
[5]
  pIC50: < 3.70
[6]
  pIC50: 6.66

## COc1ccc(S(=O)(=O)NCC2(Cc3ccc(CCOCC4CC4)cc3)CCC2)cc1 [Example 5, N-[(1-{4-[2-(cyclopropylmethoxy)ethyl]benzyl}cyclobutyl)methyl]-4-methoxy-benzenesulfonamide]
[1]
  pIC50: < 3.70
[2]
  pIC50: < 3.70
[3]
  pIC50: < 3.70
[4]
  pIC50: < 3.70
[5]
  pIC50: < 3.70
[6]
  pIC50: 5.45

## O=S(=O)(NCC1(Cc2ccc(CCSC3CCCC3)cc2)CCC1)c1ccc(Cl)cc1Cl [Example 12, 2,4-dichloro-N-[(1-{4-[2-(cyclopentylthio)ethyl]benzyl}cyclobutyl)methyl]benzenesulfonamide]
[1]
  pIC50: < 3.70
[2]
  pIC50: < 3.70
[3]
  pIC50: < 3.70
[4]
  pIC50: < 3.70
[5]
  pIC50: < 3.70
[6]
  pIC50: 6.67

## CSCCc1ccc(CC2(CNS(=O)(=O)c3ccc(Cl)cc3Cl)CCC2)cc1 [Example 17, 2,4-dichloro-N-[(1-{4-[2-(methylthio)ethyl]benzyl}cyclobutyl)methyl]benzenesulfonamide]
[1]
  pIC50: < 3.70
[2]
  pIC50: < 3.70
[3]
  pIC50: < 3.70
[4]
  pIC50: < 3.70
[5]
  pIC50: < 3.70
[6]
  pIC50: 6.67

## O=S(=O)(NCC1(Cc2ccc(CCS(=O)(=O)C3CCCC3)cc2)CCC1)c1ccc(Cl)cc1Cl [Example 22, 2,4-dichloro-N-[(1-{4-[2-(cyclopentylsulfonyl)ethyl]benzyl}cyclobutyl)methyl]benzenesulfonamide]
[1]
  pIC50: < 3.70
[2]
  pIC50: < 3.70
[3]
  pIC50: < 3.70
[4]
  pIC50: < 3.70
[5]
  pIC50: < 3.70
[6]
  pIC50: 6.15

## CS(=O)(=O)CCc1ccc(CC2(CNS(=O)(=O)c3ccc(Cl)cc3Cl)CCC2)cc1 [Example 27, 2,4-dichloro-N-[(1-{4-[2-(methylsulfonyl)ethyl]benzyl}cyclobutyl)methyl]benzenesulfonamide]
[1]
  pIC50: < 3.70
[2]
  pIC50: < 3.70
[3]
  pIC50: < 3.70
[4]
  pIC50: < 3.70
[5]
  pIC50: < 3.70
[6]
  pIC50: 6.63

## CS(=O)(=O)CCc1ccc(CC2(CNS(=O)(=O)c3cccc4ccccc34)CCC2)cc1 [Example 30, N-[(1-{4-[2-(methylsulfonyl)ethyl]benzyl}cyclobutyl)methyl]naphthalene-1-sulfonamide]
[1]
  pIC50: < 3.70
[2]
  pIC50: < 3.70
[3]
  pIC50: < 3.70
[4]
  pIC50: < 3.70
[5]
  pIC50: < 3.70
[6]
  pIC50: 5.35

## O=S(=O)(NCC1(Cc2ccc(CCO)cc2)CCCC1)c1ccc(Cl)cc1 [Example 33]
[1]; read-out: Inhibition IC50 Caspase-6, tested 100 nM to 200 μM, 1% DMSO, 3 h 30 min at room temperature
  pIC50: < 3.70
[2]; read-out: Inhibition IC50 Caspase-2, tested 100 nM to 200 μM, 1% DMSO, 3 h 30 min at room temperature
  pIC50: < 3.70
[3]; read-out: Inhibition IC50 Caspase-3, tested 100 nM to 200 μM, 1% DMSO, 3 h 30 min at room temperature
  pIC50: < 3.70
[4]; read-out: Inhibition IC50 Caspase-9, tested 100 nM to 200 μM, 1% DMSO, 3 h 30 min at room temperature
  pIC50: < 3.70
[5]; read-out: Inhibition IC50 Caspase-8, tested 100 nM to 200 μM, 1% DMSO, 3 h 30 min at room temperature
  pIC50: < 3.70
[6]; read-out: Inhibition IC50 Caspase-10, tested 100 nM to 200 μM, 1% DMSO, 3 h 30 min at room temperature
  pIC50: 5.77

## O=S(=O)(NCC1(Cc2ccc(CCO)cc2)CCCC1)c1cccc(Cl)c1 [Example 34]
[1]
  pIC50: < 3.70
[2]
  pIC50: < 3.70
[3]
  pIC50: < 3.70
[4]
  pIC50: < 3.70
[5]
  pIC50: < 3.70
[6]
  pIC50: 5.46

## CC(=O)c1ccc(S(=O)(=O)NCC2(Cc3ccc(CCO)cc3)CCCC2)cc1 [Example 35]
[1]
  pIC50: < 3.70
[2]
  pIC50: < 3.70
[3]
  pIC50: < 3.70
[4]
  pIC50: < 3.70
[5]
  pIC50: < 3.70
[6]
  pIC50: 5.54

## CS(=O)(=O)c1ccc(S(=O)(=O)NCC2(Cc3ccc(CCO)cc3)CCCC2)cc1 [Example 36]
[1]
  pIC50: < 3.70
[2]
  pIC50: < 3.70
[3]
  pIC50: < 3.70
[4]
  pIC50: < 3.70
[5]
  pIC50: < 3.70
[6]
  pIC50: 5.01

## CSc1ccc(S(=O)(=O)NCC2(Cc3ccc(CCO)cc3)CCCC2)cc1 [Example 43]
[1]
  pIC50: < 3.70
[2]
  pIC50: < 3.70
[3]
  pIC50: < 3.70
[4]
  pIC50: < 3.70
[5]
  pIC50: < 3.70
[6]
  pIC50: 5.29

## O=S(=O)(NCC1(Cc2ccc(CCO)cc2)CCCC1)c1ccc(Cl)c(Cl)c1 [Example 45]
[1]
  pIC50: < 3.70
[2]
  pIC50: < 3.70
[3]
  pIC50: < 3.70
[4]
  pIC50: < 3.70
[5]
  pIC50: < 3.70
[6]
  pIC50: 6.53

## O=S(=O)(NCC1(Cc2ccc(CCO)cc2)CCCC1)c1ccc(Cl)cc1Cl [Example 46]
[1]
  pIC50: < 3.70
[2]
  pIC50: < 3.70
[3]
  pIC50: < 3.70
[4]
  pIC50: < 3.70
[5]
  pIC50: < 3.70
[6]
  pIC50: 6.75

## COc1ccc(S(=O)(=O)NCC2(Cc3ccc(CCO)cc3)CCCC2)cc1 [Example 47]
[1]
  pIC50: < 3.70
[2]
  pIC50: < 3.70
[3]
  pIC50: < 3.70
[4]
  pIC50: < 3.70
[5]
  pIC50: < 3.70
[6]
  pIC50: 5.26

## O=S(=O)(NCC1(Cc2ccc(CCO)cc2)CCCC1)c1ccc(C(F)(F)F)cc1 [Example 49]
[1]
  pIC50: < 3.70
[2]
  pIC50: < 3.70
[3]
  pIC50: < 3.70
[4]
  pIC50: < 3.70
[5]
  pIC50: < 3.70
[6]
  pIC50: 5.50

## O=S(=O)(NCC1(Cc2ccc(CCO)cc2)CCCC1)c1cccc(C(F)(F)F)c1 [Example 50]
[1]
  pIC50: < 3.70
[2]
  pIC50: < 3.70
[3]
  pIC50: < 3.70
[4]
  pIC50: < 3.70
[5]
  pIC50: < 3.70
[6]
  pIC50: 5.50

## COC(=O)C[C@H](NC(=O)[C@H](C)NC(=O)[C@@H](NC(=O)[C@H](CC(=O)OC)NC(=O)OCc1ccccc1)C(C)C)C(=O)CF [z- DVAD - fmk, reference compound] (Cbz-D(OMe)VAD(OMe)-CH2F)
[2]; [7]
  IC20: 3 µM

## CC[C@H](C)[C@H](NC(=O)OCc1ccccc1)C(=O)N[C@@H](CCC(=O)OC)C(=O)N[C@H](C(=O)N[C@@H](CC(=O)OC)C(=O)CF)[C@@H](C)O [z- IETD - fmk, z-IE(OMe)TD(OMe)-fmk, reference compound] (Cbz-IE(OMe)TD(OMe)-CH2F)
[5]; [7]
  IC20: 1.5 µM
[6]; [7]
  IC20: 0.08 µM

## CC[C@H](C)[C@H](NC(=O)[C@H](CCC(=O)OC)NC(=O)[C@@H](NC(=O)OCc1ccccc1)C(C)C)C(=O)N[C@@H](CC(=O)OC)C(=O)CF [z- VEID - fmk, z-VE(OMe)ID(OMe)-fmk, reference compound] (Cbz-VE(OMe)ID(OMe)-CH2F)
[1]; [7]
  IC20: 3 µM

## COC(=O)CC[C@H](NC(=O)[C@H](CC(C)C)NC(=O)OCc1ccccc1)C(=O)N[C@@H](Cc1c[nH]cn1)C(=O)N[C@@H](CC(=O)OC)C(=O)CF [z-LEHD - fmk, z-LE(OMe)HD(OMe)-fmk, reference compound] (Cbz-LE(OMe)HD(OMe)-CH2F)
[4]; [7]
  IC20: 0.2 µM
